For assay [1], the system named is 1D5 monoclonal antibody. Briefly: Peptide ELISA of synthetic ER peptides with 1D5. The assay is classed as binding, mouse. The settings on record: compared among ER peptides 3, 4 and 6. An excerpt:
Three synthetic peptides (designated as ER peptide 3, ER peptide 4, and ER peptide 6), that are representative of above consensus phage sequence, were synthesized (by SynPep Labs, Dublin, Calif. and Bachem Labs, King of Prussia, Pa.) and tested for specificity/affinity to 1D5 monoclonal antibody.
On the technique in general: ELISA stands for enzyme-linked immunosorbent assay.

For assay [2], the target named is ER peptide mimic. Briefly: immunostaining of ER peptide mimic spots on matrix, semi-quantitative colour score.

*: point of attachment. FITC = O=C1OC2(c3ccc(O)cc3Oc3cc(O)ccc32)c2ccc(NC(=S)*)cc21

Turning to “Ac-DFQCPYVECVVNAPGGK (FITC) GK-CONH2 (Ac-DFQCPYVECVVNAPGGK(FITC)GK-NH2; cysteine pairing not given here) [ER peptide 3]”, the “peptide ELISA signal” value in assay [1] was “highest signal”.
“anti-human estrogen receptor mouse monoclonal antibody 1D5”: the Staining intensity (1-4+) in assay [2] is 4 1-4+ scale.

The values are drawn from US20070141723A1, “Immunohistochemistry staining controls” (priority 2005, published 2007).
